Values quoted from earlier work, collected in US12478681B2, “Non-activated, amorphous, pH neutral, two-part bedside-ready clay delivery system that treats pathogen infections in humans and animals” (priority 2019, dated 2025).

elemental iron
Oral dose that can cause severe toxicity, morbidity and mortality: > 60 mg/kg | Oral dose that can have toxicity symptoms: 20 to 60 mg/kg | Oral dose that is non-toxic: < 20 mg/kg
